Data: patent US6673039B1, “Compositions, kits, methods, and apparatus for transvascular delivery of a composition to an extravascular tissue of a mammal” (Trustees of the University of Pennsylvania, priority 1997, dated 2004)

System: skeletal muscle capillaries
Experiment: Microvascular perfusion viewed in real time through a dissecting microscope after topical application
Assay type: in vivo, mouse
Source text: Newborn mice pups were anesthetized after feeding to ensure a stomach filled with milk, for the purpose of providing optical contrast. […] Histamine, papaverine, or both, dissolved in PBS, were applied topically to the capillaries. Video recordings were made against a time line with an attached camera.

| Compound | effect on microvascular perfusion (300 micrograms per milliliter) | effect on microvascular perfusion (10 millimolar) |
| --- | --- | --- |
| COc1ccc(Cc2nccc3cc(OC)c(OC)cc23)cc1OC [papaverine] | capillary recruitment and increased local perfusion | – |
| NCCc1c[nH]cn1 [histamine] | – | rapidly induced vasodilation, and was followed within seconds by progressive capillary stasis |
